In patent US20240067662A1, “KRAS INHIBITORS” (Bristol-Myers Squibb Company, priority 2022, published 2024):

Molecular target: GMPPNP-loaded KRAS G12C (Homo sapiens, UniProt P01116, G12C)
Test: KRAS G12C RAF Disruption Assay (HTRF)
Assay type: biochemical
Settings: recombinant GMPPNP-loaded KRAS G12C (5 nM), 20 min with compound; GST-RAF1 RBD (9 nM); HTRF signal; read-out: KRASG12C RAF Disruption Assay (IC50)
Procedure: KRAS^G12C RAF Disruption Assay
This is a functional assay that measures activity of compounds against KRAS-G12C^(ON), i.e., the active form of KRAS G12C. Recombinant GMPPNP-loaded KRAS G12C (5 nM) was treated with compound at room temperature for 20 minutes in assay buffer (50 mM Tris pH 7.5, 100 mM NaCl, 1 mM MgCl2, 1 mM DTT, 100ug/ml BSA). Recombinant GST-RAF1 RBD (9 nM) was added, and the reaction mixture was incubated for 20 minutes. SA-Tb (0.25 nM) was added, and the reaction mixture was incubated for 3 hours. HTRF signal was measured (PerkinElmer Envision), the signal ratio (λem 520/λem 495) was calculated, and IC50 values were calculated from the dose-response curve.

Chain of GMPPNP-loaded KRAS G12C (P01116 1-188 isoform P01116-2 G12C): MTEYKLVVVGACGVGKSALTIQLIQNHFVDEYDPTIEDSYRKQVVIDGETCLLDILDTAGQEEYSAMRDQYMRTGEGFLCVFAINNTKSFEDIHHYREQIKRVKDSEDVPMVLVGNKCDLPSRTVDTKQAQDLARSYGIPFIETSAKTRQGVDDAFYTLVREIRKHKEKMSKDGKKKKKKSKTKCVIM

| SMILES | IC50 |
| --- | --- |
| C#Cc1cccc2cccc(-c3ncc4c(N(C)C5CCN(C(=O)/C(F)=C/c6nccs6)C5C)nc(OC[C@@]56CCCN5C[C@H](F)C6)nc4c3F)c12 (single isomer, unassigned) [Example 73 trans isomer 2] | 5.7 µM |
| N#CC[C@H]1CN(c2nc(OC[C@@]34CCCN3C[C@H](F)C4)nc3c(F)c(-c4ccccc4C4CCC4)ncc23)CCN1C(=O)/C(F)=C/c1nccs1 [Compound 82, 2-((2S)-4-(7-(2-cyclobutylphenyl)-8-fluoro-2-(((2R, 7aS)-2-fluorotetrahydro-1H-pyrrolizin-7a(5H)-yl)methoxy)pyrido[4,3-d]pyrimidin-4-yl)-1-((Z)-2-fluoro-3-(thiazol-2-yl)acryloyl)piperazin-2-yl)acetonitrile] | 0.062 µM |
| N#CC[C@H]1CN(c2nc(OC[C@@]34CCCN3C[C@H](F)C4)nc3c(F)c(-c4cc(O)ccc4C(F)(F)F)ncc23)CCN1C(=O)/C(F)=C/c1ccccn1 [Compound 94, 2-((S)-4-(8-fluoro-2-(((2R, 7aS)-2-fluorotetrahydro-1H-pyrrolizin-7a(5H)-yl)methoxy)-7-(5-hydroxy-2-(trifluoromethyl)phenyl)pyrido[4,3-d]pyrimidin-4-yl)-1-((Z)-2-fluoro-3-(pyridin-2-yl)acryloyl)piperazin-2-yl)acetonitrile] | 0.034 µM |
| C#Cc1cccc2cccc(-c3ncc4c(N5CCN(C(=O)/C(F)=C/c6cccnn6)CC5)nc(OC[C@@]56CCCN5C[C@H](F)C6)nc4c3F)c12 [Compound 127, (Z)-1-(4-(7-(8-ethynylnaphthalen-1-yl)-8-fluoro-2-(((2R, 7aS)-2-fluorotetrahydro-1H-pyrrolizin-7a(5H)-yl)methoxy)pyrido[4,3-d]pyrimidin-4-yl)piperazin-1-yl)-2-fluoro-3-(pyridazin-3-yl)prop-2-en-1-one] | 0.01 µM |
| N#CC[C@H]1CN(c2nc(OC[C@@]34CCCN3C[C@H](F)C4)nc3c(F)c(-c4cc(O)ccc4C(F)(F)F)ncc23)CCN1C(=O)/C(F)=C/c1nccs1 [Compound 95, 2-((S)-4-(8-fluoro-2-(((2R, 7aS)-2-fluorotetrahydro-1H-pyrrolizin-7a(5H)-yl)methoxy)-7-(5-hydroxy-2-(trifluoromethyl)phenyl)pyrido[4,3-d]pyrimidin-4-yl)-1-((Z)-2-fluoro-3-(thiazol-2-yl)acryloyl)piperazin-2-yl)acetonitrile] | 0.014 µM |
| C#Cc1c(F)ccc2cc(O)cc(-c3ncc4c(N5C[C@H]6CC[C@@H](C5)N6C(=O)/C(F)=C/c5cccc(COC)n5)nc(OC[C@@]56CCCN5C[C@H](F)C6)nc4c3F)c12 [Compound 15, (Z)-1-((1R, 5S)-3-(7-(8-ethynyl-7-fluoro-3-hydroxynaphthalen-1-yl)-8-fluoro-2-(((2R, 7aS)-2-fluorotetrahydro-1H-pyrrolizin-7a(5H)-yl)methoxy)pyrido[4,3-d]pyrimidin-4-yl)-3,8-diazabicyclo[3.2.1]octan-8-yl)-2-fluoro-3-(6-(methoxymethyl)pyridin-2-yl)prop-2-en-1-one] | 0.06 µM |
| CN1CCC[C@H]1COc1nc(N2CCN(C(=O)/C(F)=C/c3ccccn3)[C@@H](CC#N)C2)c2cnc(-c3cccc4cccc(Cl)c34)c(F)c2n1 [Compound 19A, 2-((S)-4-(7-(8-chloronaphthalen-1-yl)-8-fluoro-2-(((S)-1-methylpyrrolidin-2-yl)methoxy)pyrido[4,3-d]pyrimidin-4-yl)-1-((Z)-2-fluoro-3-(pyridin-2-yl)acryloyl)piperazin-2-yl)acetonitrile] | 0.059 µM |
| C#Cc1cccc2cccc(-c3nc(OC)c4c(N5CCN(C(=O)/C(F)=C/c6nccs6)CC5)nc(OC[C@@]56CCCN5C[C@H](F)C6)nc4c3F)c12 [Compound 110, (Z)-1-(4-(7-(8-ethynylnaphthalen-1-yl)-8-fluoro-2-(((2R, 7aS)-2-fluorotetrahydro-1H-pyrrolizin-7a(5H)-yl)methoxy)-5-methoxypyrido[4,3-d]pyrimidin-4-yl)piperazin-1-yl)-2-fluoro-3-(thiazol-2-yl)prop-2-en-1-one] | 0.18 µM |
| Cn1ncc2cccc(-c3ncc4c(N5CCN(C(=O)/C(F)=C/c6ccccn6)CC5)nc(OC[C@@]56CCCN5C[C@H](F)C6)nc4c3F)c21 [Example 38, (Z)-2-fluoro-1-(4-(8-fluoro-2-(((2R, 7aS)-2-fluorotetrahydro-1H-pyrrolizin-7a(5H)-yl)methoxy)-7-(1-methyl-1H-indazol-7-yl)pyrido[4,3-d]pyrimidin-4-yl)piperazin-1-yl)-3-(pyridin-2-yl)prop-2-en-1-one] | 4.7 µM |
| CN1CCC[C@H]1COc1nc(N2CCN(C(=O)/C(F)=C/c3ncccn3)[C@@H](CC#N)C2)c2cnc(-c3cccc4cccc(Cl)c34)c(F)c2n1 [Compound 20, 2-((S)-4-(7-(8-chloronaphthalen-1-yl)-8-fluoro-2-(((S)-1-methylpyrrolidin-2-yl)methoxy)pyrido[4,3-d]pyrimidin-4-yl)-1-((Z)-2-fluoro-3-(pyrimidin-2-yl)acryloyl)piperazin-2-yl)acetonitrile] | 0.089 µM |
| N#CC[C@H]1CN(c2nc(OC[C@@]34CCCN3C[C@H](F)C4)nc3c(F)c(-c4cc(Cl)ccc4C(F)(F)F)ncc23)CCN1C(=O)/C(F)=C/c1nccs1 [Example 46, 2-((S)-1-((Z)-2-fluoro-3-(thiazol-2-yl)acryloyl)-4-(8-fluoro-7-(5-chloro-2-(trifluoromethyl)phenyl)-2-(((2R, 7aS)-2-fluorotetrahydro-1H-pyrrolizin-7a(5H)-yl)methoxy)pyrido[4,3-d]pyrimidin-4-yl)piperazin-2-yl)acetonitrile] | 0.39 µM |
| N#Cc1cccc2cccc(-c3ncc4c(N5CCN(C(=O)/C(F)=C/c6ccccn6)CC5)nc(OC[C@@]56CCCN5C[C@H](F)C6)nc4c3F)c12 [Example 49, 8-(8-fluoro-4-(4-((Z)-2-fluoro-3-(pyridin-2-yl)acryloyl)piperazin-1-yl)-2-(((2R, 7aS)-2-fluorotetrahydro-1H-pyrrolizin-7a(5H)-yl)methoxy)pyrido[4,3-d]pyrimidin-7yl)-1-naphthonitrile] | 0.8 µM |
| C#Cc1c(F)ccc2cc(O)cc(-c3ncc4c(N5CCN(C(=O)/C(F)=C/c6ncco6)CC5)nc(OC[C@@]56CCCN5C[C@H](F)C6)nc4c3F)c12 [Example 54, (Z)-1-(4-(7-(8-ethynyl-7-fluoro-3-hydroxynaphthalen-1-yl)-8-fluoro-2-(((2R, 7aS)-2-fluorotetrahydro-1H-pyrrolizin-7a(5H)-yl)methoxy)pyrido[4,3-d]pyrimidin-4-yl)piperazin-1-yl)-2-fluoro-3-(oxazol-2-yl)prop-2-en-1-one] | 0.005 µM |
| C#Cc1c(F)ccc2cc(O)cc(-c3ncc4c(N5CCN(C(=O)/C(F)=C/c6nccs6)CC5)nc(OC[C@]56CCC[C@H]5N(C)CCC6)nc4c3F)c12 [Example 58, (Z)-1-(4-(7-(8-ethynyl-7-fluoro-3-hydroxynaphthalen-1-yl)-8-fluoro-2-(((4aS, 7aR)-1-methyloctahydro-4aH-cyclopenta[b]pyridin-4a-yl)methoxy)pyrido[4,3-d]pyrimidin-4-yl)piperazin-1-yl)-2-fluoro-3-(thiazol-2-yl)prop-2-en-1-one] | 0.002 µM |
| C#Cc1cccc2cccc(-c3ncc4c(N(C)C5CCN(C(=O)/C(F)=C/c6ccccn6)C5C)nc(OC[C@@]56CCCN5C[C@H](F)C6)nc4c3F)c12 (single isomer, unassigned) [Example 74 cis isomer 1] | 1 µM |
| N#CC[C@H]1CN(c2nc(OC[C@@]34CCCN3C[C@H](F)C4)nc3c(F)c(-c4cc(F)ccc4F)ncc23)CCN1C(=O)/C(F)=C/c1nccs1 [Example 41, 2-((S)-4-(7-(2,5-difluorophenyl)-8-fluoro-2-(((2R, 7aS)-2-fluorotetrahydro-1H-pyrrolizin-7a(5H)-yl)methoxy)pyrido[4,3-d]pyrimidin-4-yl)-1-((Z)-2-fluoro-3-(thiazol-2-yl)acryloyl)piperazin-2-yl)acetonitrile] | 0.76 µM |
| C#Cc1c(F)ccc2cc(O)cc(-c3ncc4c(N5CCN(C(=O)/C(F)=C/c6ccccn6)C[C@@H]5C)nc(OC[C@@]56CCCN5C[C@H](F)C6)nc4c3F)c12 [Example 65, (Z)-1-((S)-4-(7-(8-ethynyl-7-fluoro-3-hydroxynaphthalen-1-yl)-8-fluoro-2-(((2R, 7aS)-2-fluorotetrahydro-1H-pyrrolizin-7a(5H)-yl)methoxy)pyrido[4,3-d]pyrimidin-4-yl)-3-methylpiperazin-1-yl)-2-fluoro-3-(pyridin-2-yl)prop-2-en-1-one] | 0.0045 µM |
| C#Cc1c(F)ccc2cc(O)cc(-c3ncc4c(N5C[C@H]6CC[C@@H](C5)N6C(=O)/C(F)=C/c5nccs5)nc(OC[C@@]56CCCN5C[C@H](F)C6)nc4c3F)c12 [Compound 1, (Z)-1-((1R, 5S)-3-(7-(8-ethynyl-7-fluoro-3-hydroxynaphthalen-1-yl)-8-fluoro-2-(((2R, 7aS)-2-fluorotetrahydro-1H-pyrrolizin-7a(5H)-yl)methoxy)pyrido[4,3-d]pyrimidin-4-yl)-3,8-diazabicyclo[3.2.1]octan-8-yl)-2-fluoro-3-(thiazol-2-yl)prop-2-en-1-one] | 0.027 µM |
| C#Cc1c(F)ccc2cc(O)cc(-c3ncc4c(N5CCN(C(=O)/C(F)=C/c6cnccn6)CC5)nc(OC[C@@]56CCCN5C[C@H](F)C6)nc4c3F)c12 [Example 56, (Z)-1-(4-(7-(8-ethynyl-7-fluoro-3-hydroxynaphthalen-1-yl)-8-fluoro-2-(((2R, 7aS)-2-fluorotetrahydro-1H-pyrrolizin-7a(5H)-yl)methoxy)pyrido[4,3-d]pyrimidin-4-yl)piperazin-1-yl)-2-fluoro-3-(pyrazin-2-yl)prop-2-en-1-one] | 0.006 µM |
